Key:
COX-2 = biological target: T1, COX-2 (Homo sapiens, UniProt P35354); assay: Human whole blood assay, COX-2 inhibition (LPS-induced PGE2); type: cell-based; conditions: 24 h
T1 construct: Fresh blood was collected in tubes containing potassium EDTA by vein puncture from male volunteers; endogenous in cells; host or cells: fresh human whole blood from male volunteers, aspirin-pretreated, LPS-stimulated for 24 h
T1 sequence (P35354 18-604): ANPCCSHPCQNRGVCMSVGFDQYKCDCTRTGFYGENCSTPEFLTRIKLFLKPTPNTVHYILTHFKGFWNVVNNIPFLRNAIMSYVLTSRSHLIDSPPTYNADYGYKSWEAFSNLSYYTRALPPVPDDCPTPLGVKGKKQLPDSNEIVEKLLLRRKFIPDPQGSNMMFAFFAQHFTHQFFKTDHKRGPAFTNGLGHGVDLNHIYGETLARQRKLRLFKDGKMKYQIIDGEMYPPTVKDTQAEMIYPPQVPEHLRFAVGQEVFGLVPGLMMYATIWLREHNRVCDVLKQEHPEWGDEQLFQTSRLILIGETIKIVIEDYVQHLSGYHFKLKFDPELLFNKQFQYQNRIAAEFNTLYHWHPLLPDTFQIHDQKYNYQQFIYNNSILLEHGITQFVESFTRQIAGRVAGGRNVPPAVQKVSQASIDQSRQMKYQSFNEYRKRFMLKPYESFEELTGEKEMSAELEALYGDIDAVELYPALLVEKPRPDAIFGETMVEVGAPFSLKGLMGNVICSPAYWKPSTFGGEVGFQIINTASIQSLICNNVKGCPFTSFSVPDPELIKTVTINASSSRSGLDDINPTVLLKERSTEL
Description: In vitro Evaluation of Cycloxygenase-2 (COX-2) Inhibition Activity
The COX-2 inhibition activity of the compounds illustrated in the examples was determined by the following method.
Human whole blood provides a protein and cell rich milieu appropriate for the study of biochemical efficacy of anti-inflammatory compounds such as selective COX-2 inhibitors. […] This is correlating with the observation that COX-2 inhibitors have no effect on prostaglandin E2 (PGE2) production in normal blood. These inhibitors are active only after incubation of human blood with lipopolysaccharide (LPS), which induces COX-2 production in the blood.
Fresh blood was collected in tubes containing potassium EDTA by vein puncture from male volunteers. The subjects should have no apparent inflammatory conditions and not taken NSAIDs for atleast 7 days prior to blood collection. Blood was treated with aspirin in vitro (10 μg/ml, at time zero) to inactivate COX-1, and then with LPS (10 μg/ml) along with test agents or vehicle. The blood was incubated for 24 h at 37° C., after which the tubes were centrifuged, the plasma was separated and stored at −80° C. (J Pharmacol Exp Ther 271, 1705, 1994; Proc Natl Acad Sci USA 96, 7563, 1999). The plasma was assayed for PGE2 using Cayman ELISA kit as per the procedure outlined by the manufacturer (Cayman Chemicals, Ann Arbor, USA). […]

IL-6 = IL-6 production from LPS-stimulated human monocytes (ELISA); type: cell-based; conditions: Monocyte; for inhibition at 1 µM: Conc. 1 μM
Description: (§1) This assay determines the effect of test compounds on the production of IL-6 from human monocytes. Compounds are tested for their ability to downregulate the production of IL-6 in activated monocytes. Test compounds were incubated for three, six and twenty four hours with human monocytes. Lipopolysaccharide was used to stimulate the monocytes. The level of Interleukin-6 is quantitated using Enzyme-Linked Immunosorbent assay performed in a 96 well format.

Male Wistar rats [1] = assay: Rat carrageenan paw edema test; type: in vivo; conditions: oral
Description: Rat Carrageenan Paw Edema Test
The carrageenan paw edema test was performed as described by Winter et al (Proc. Soc. Exp Biol Me., 111, 544, 1962). Male Wistar rats were selected and the body weight were equivalent within each group. The rats were fasted for eighteen hours with free access to water. The rats were dosed orally with the test compound suspended in vehicle containing 0.5% Methycellulose. The control rats were administered the vehicle alone. After one hour the rats were injected with 0.1 ml of 1% Carrageenan solution in 0.9% saline into the sub plantar surface of the right hind paw. Paw thickness was measured using vernier calipers at 0 time, after 2 and 3 hours. The average of foot swelling in drug treated animals was compared with that of control animals. Anti-inflammatory activity was expressed as the percentage inhibition of edema compared with control group [Arzneim-Forsch/Drug Res 43(I), 1, 44-50, 1993; Otterness and Bliven, Laboratory Models for Testing NSAIDs, In Non-Steroidal Anti-Inflammatory Drugs, (J. Lombardino, ed. 1985)]. The data of the selected compounds in this invention are summarized in Table I. In order to evaluate their role on the ulcer formation, the animals were sacrificed by cervical dislocation, the stomach removed and flushed with 1% formalin (10 ml). The stomach was opened along the greater curvature. […]

Male Wistar rats [2] = assay: Gastro-ulcerogenic potential (ulcer formation in the rats of the paw edema test); type: in vivo, rat; conditions: oral dosing
Description: The carrageenan paw edema test was performed as described by Winter et al (Proc. Soc. Exp Biol Me., 111, 544, 1962). Male Wistar rats were selected and the body weight were equivalent within each group. The rats were fasted for eighteen hours with free access to water. The rats were dosed orally with the test compound suspended in vehicle containing 0.5% Methycellulose. The control rats were administered the vehicle alone. After one hour the rats were injected with 0.1 ml of 1% Carrageenan solution in 0.9% saline into the sub plantar surface of the right hind paw. Paw thickness was measured using vernier calipers at 0 time, after 2 and 3 hours. The average of foot swelling in drug treated animals was compared with that of control animals. Anti-inflammatory activity was expressed as the percentage inhibition of edema compared with control group [Arzneim-Forsch/Drug Res 43(I), 1, 44-50, 1993; Otterness and Bliven, Laboratory Models for Testing NSAIDs, In Non-Steroidal Anti-Inflammatory Drugs, (J. Lombardino, ed. 1985)]. The data of the selected compounds in this invention are summarized in Table I. In order to evaluate their role on the ulcer formation, the animals were sacrificed by cervical dislocation, the stomach removed and flushed with 1% formalin (10 ml). The stomach was opened along the greater curvature. The haemorrhagic puncta and sulci were identified macroscopically.

TNF-α = TNF-α production from LPS-stimulated human monocytes (ELISA); type: cell-based; conditions: Monocyte; for inhibition at 10 µM: Conc. 10 μM
Description: Tumor Necrosis Factor Alpha (TNF-α)
as §1, with “TNF-α” for “IL-6”, “were” for “are”, “TNF-α was” for “Interleukin-6 is”

| Structure (SMILES) | melting point [°C] | inhibition at 1 µM (IL-6) [%] | further results |
| --- | --- | --- | --- |
| Nc1cc(=O)nc(Nc2ccccc2)n1-c1ccccc1 [Example 1, 6-amino-2-phenylamino-1-phenyl-1H-pyrimidin-4-one] | 202 to 206 |  | inhibition at 10 µM (COX-2; Conc. 10 μM): 75.8%; inhibition at 0.25 µM (IL-6; Conc. 0.25 μM): 46.6%; Rat Paw Edema model % Inhibition (10 mg/kg body weight) (Male Wistar rats [1]): 10%; Gastro-ulcerogenic potential (% incidence of ulceration) (Male Wistar rats [2]): 24.6% |
| COc1ccc(Nc2nc(=O)cc(N)n2-c2ccccc2)cc1 [Example 2, 6-amino-2-(4-methoxy-phenylamino)-1-phenyl-1H-pyrimidin-4-one] | 213 to 216 | 65.1 |  |
| CCOc1ccc(Nc2nc(=O)cc(N)n2-c2ccccc2)cc1 [Example 3, 6-amino-2-(4-ethoxy-phenylamino)-1-phenyl-1H-pyrimidin-4-one] | 111 to 113 | 82.3 | inhibition at 1 µM (TNF-α; Conc. 1 μM): 58.3% |
| CSc1ccc(Nc2nc(=O)cc(N)n2-c2ccccc2)cc1 [Example 4, 6-amino-2-(4-methylthio-phenylamino)-1-phenyl-1H-pyrimidin-4-one] | 133 to 135 | 56.7 | inhibition at 10 µM (TNF-α): 43.5% |
| Cc1ccc(Nc2nc(=O)cc(N)n2-c2ccccc2)cc1 [Example 5, 6-amino-2-(4methyl-phenylamino)-1-phenyl-1H-pyrimidin-4-one] | 207 to 210 |  |  |
| Nc1cc(=O)nc(Nc2ccc(Cl)cc2)n1-c1ccccc1 [Example 6, 6-amino-2-(4-chloro-phenylamino)-1-phenyl-1H-pyrimidin-4-one] | 233 to 237 | 44.6 |  |
| Nc1cc(=O)nc(Nc2ccc(F)cc2)n1-c1ccccc1 [Example 7, 6-amino-2-(4-fluoro-phenylamino)-1-phenyl-1H-pyrimidin-4-one] | 225 to 227 |  |  |
| CSc1ccc(Nc2nc(=O)cc(N)n2-c2ccc(C)cc2)cc1 [Example 8, 6-amino-1-(4-methylphenyl)-2-(4-methylthio-phenylamino)-1H-pyrimidin-4-one] | 231 to 234 |  |  |
| COc1ccc(-n2c(N)cc(=O)nc2Nc2ccccc2)cc1 [Example 9, 6-amino-1-(4-methoxyphenyl)-2-phenylamino-1H-pyrimidin-4-one] | 180 to 190 | 75.4 | inhibition at 10 µM (TNF-α): 45.2% |
| CCOc1ccc(-n2c(N)cc(=O)nc2Nc2ccccc2)cc1 [Example 10, 6-amino-1-(4-ethoxyphenyl)-2-phenylamino-1H-pyrimidin-4-one] | 114 to 118 |  | inhibition at 1 µM (COX-2; Conc. 1 μM): 33.3% |
| Nc1cc(=O)nc(Nc2ccccc2)n1-c1ccc(Cl)cc1 [Example 11, 6-amino-1-(4-chlorophenyl)-2-phenylamino-1H-pyrimidin-4-one] | 216 to 222 | 59.5 |  |
| Nc1cc(=O)nc(Nc2ccccc2)n1-c1ccc(Br)cc1 [Example 12, 6-amino-1-(4-bromophenyl)-2-phenylamino-1H-pyrimidin-4-one] | 211 to 213 |  |  |

Reference: patent publication US20030232813A1, “Novel amino substituted pyrimidinone derivatives” (ORCHID CHEMICALS & PHARMACEUTICALS LIMITED, priority 2002, published 2003)
